Measured values: patent publication EP4650002A1 (Ludwig-Maximilians-Universität, priority 2024, dated 2025)

Molecular target: T1, human TLX (Homo sapiens, UniProt Q9Y466)
T1 construct: expressed in transfected cells; host or cells: HEK293T
Assay: Gal4 hybrid reporter gene assay (TLX modulation)
Assay type: cell-based
Set-up: key to relative reporter activity: fraction of DMSO control (DMSO = 1)
Settings: for EC50: Gal4-TLX hybrid reporter in HEK293T cells, 16 h incubation; for relative reporter activity: DMSO control = 1
Method: In the Tables, the TLX relative reporter activity is expressed as EC50 (in µM) for each listed compound. "EC50" refers to a measure of the concentration of a compound which induces a biological response halfway between the baseline and maximum after a specified exposure time. […] The EC50 is measured via a hybrid reporter gene assay, employing the transfection of a reporter (firefly luciferase with Gal4 response element), a control gene (Renilla luciferase), a transcriptional activator (Gal4-VP16) and a hybrid receptor consisting of the TLX ligand binding domain (LBD) and the Gal4 DNA binding domain (DBD).
Hybrid reporter gene assays. […] After 24 h, medium was changed to Opti-MEM without supplements and cells were transiently transfected using Lipofectamine LTX reagent (Invitrogen, Carlsbad, CA, USA) according to the manufacturer's protocol. Five hours after transfection, cells were incubated with the test compounds in Opti-MEM supplemented with penicillin (100 U/mL), streptomycin (100 µg/mL) and 0.1% DMSO for 16 h before luciferase activity was measured using the Dual-Glo Luciferase Assay System (Promega) according to the manufacturer's protocol on a Tecan Spark luminometer (Tecan Deutschland GmbH, Crailsheim, Germany). Firefly luminescence was divided by Renilla luminescence and multiplied by 1000 resulting in relative light units (RLU) to normalize for transfection efficiency and cell growth. Fold activation was obtained by dividing the mean RLU of test compound by the mean RLU of the untreated control. All samples were tested in at least three biologically independent experiments in duplicates. For dose-response curve fitting and calculation of EC50 values, the equation "[Agonist] vs. response -- Variable slope (four parameters)" was used in GraphPad Prism (version 7.00, GraphPad Software, La Jolla, CA, USA).

[1] = minimal remaining or maximum reporter activity after treatment, in brackets below the EC50, <1 agonism, >1 inverse agonism

T1 sequence (Q9Y466 155-383 limits assumed): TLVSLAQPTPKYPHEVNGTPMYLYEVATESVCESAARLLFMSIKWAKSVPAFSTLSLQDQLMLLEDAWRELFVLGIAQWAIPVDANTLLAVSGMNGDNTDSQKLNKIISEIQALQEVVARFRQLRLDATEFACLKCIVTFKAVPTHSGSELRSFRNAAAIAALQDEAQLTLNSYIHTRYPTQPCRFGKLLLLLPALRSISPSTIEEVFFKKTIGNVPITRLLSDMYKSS

| SMILES | EC50 [nM] | relative reporter activity [1] | relative reporter activity (at 120 µM) | relative reporter activity (at 30 µM) |
| --- | --- | --- | --- | --- |
| CC(=O)c1cc(-c2cc(NC(=O)c3ccnc4ccccc34)cc(C(F)(F)F)c2)cs1 [compound 61, N-(3-(5-acetylthiophen-3-yl)-5-(trifluoromethyl)phenyl)quinoline-4-carboxamide] | 1100 ± 300 | 0.17±0.08 | – | – |
| CC(=O)c1cc(-c2cc(NC(=O)Cc3ccccc3Cl)cc(C(F)(F)F)c2)cs1 [compound 62, N-(3-(5-acetylthiophen-3-yl)-5-(trifluoromethyl)phenyl)-2-(2-chlorophenyl)-acetamide] | 360 ± 90 | 0.27±0.03 | – | – |
| Nc1cc(-c2cncnc2)cc(C(F)(F)F)c1 [compound 66, 3-(pyrimidin-5-yl)-5-(trifluoromethyl)aniline] | 2100 ± 500 | 0.40±0.06 | – | – |
| Cc1ccc(-c2cc(N)cc(C(F)(F)F)c2)cc1 [compound 67, 4'-methyl-5-(trifluoromethyl)-[1, 1 '-biphenyl]-3-amine] | – | – | – | inactive at 30 µM |
| Cc1ncc(-c2cc(N)cc(C(F)(F)F)c2)cn1 [compound 68, 3-(2-methylpyrimidin-5-yl)-5-(trifluoromethyl)aniline] | 15000 ± 6000 | 0.34±0.09 | – | – |
| Cc1cc(-c2cc(N)cc(C(F)(F)F)c2)cnc1C [compound 69, 3-(5,6-dimethylpyridin-3-yl)-5-(trifluoromethyl)aniline] | 6300 ± 2100 | – | – | – |
| Cc1cccc(-c2cc(N)cc(C(F)(F)F)c2)c1 [compound 72, 3'-methyl-5-(trifluoromethyl)-[1,1'-biphenyl]-3-amine] | – | – | – | inactive at 30 µM |
| Nc1cc(-c2ccncc2)cc(C(F)(F)F)c1 [compound 73, 3-(pyridin-4-yl)-5-(trifluoromethyl)aniline] | 13000 ± 4000 | 0.18±0.13 | – | – |
| Cc1cc(-c2cc(NC(=O)c3ccnc4ccccc34)cc(C(F)(F)F)c2)ccn1 [compound 75, N-(3-(2-methylpyridin-4-yl)-5-(trifluoromethyl)phenyl)quinoline-4-carboxamide] | 410 ± 110 | 0.26±0.05 | – | – |
| Cc1cc(-c2cc(NC(=O)Cc3ccccc3)cc(C(F)(F)F)c2)ccn1 [compound 76, N-(3-(2-methylpyridin-4-yl)-5-(trifluoromethyl)phenyl)-2-phenylacetamide] | 300 ± 70 | 0.12±0.06 | – | – |
| Cc1cc(-c2cc(NC(=O)c3ccc(Cl)c(Cl)c3)cc(C(F)(F)F)c2)ccn1 [compound 78, 3,4-dichloro-N-(3-(2-methylpyridin-4-yl)-5-(trifluoromethyl)phenyl)benzamide] | 600 ± 200 | 0.51±0.5 | – | – |
| CC(=O)Nc1cc(-c2ccnc(C)c2)cc(C(F)(F)F)c1 [compound 79, N-(3-(2-methylpyridin-4-yl)-5-(trifluoromethyl)phenyl)acetamide] | 2600 ± 400 | 0.18±0.06 | – | – |

Further lines, with some results ahead:

| EC50 [nM] | relative reporter activity [1] | relative reporter activity (at 120 µM) | SMILES | relative reporter activity (at 30 µM) |
| --- | --- | --- | --- | --- |
| 700 ± 300 | 0.24±0.07 | – | CC(=O)c1cc(-c2cc(N)cc(C(F)(F)F)c2)cs1 [compound 60, 1-(4-(3-amino-5-(trifluoromethyl)phenyl)thiophen-2-yl)ethan-1-one] | – |
| 11000 ± 3000 | 0.58±0.10 | – | Nc1cc(-c2cscn2)cc(C(F)(F)F)c1 [compound 63, 3-(thiazol-4-yl)-5-(trifluoromethyl)aniline] | – |
| – | – | (0.67±0.06 at 120 µM) | Cc1nc(-c2cc(N)cc(C(F)(F)F)c2)cs1 [compound 64, 3-(2-methylthiazol-4-yl)-5-(trifluoromethyl)aniline] | – |
| – | 0.26±0.05 | – | CC(=O)c1nc(-c2cc(N)cc(C(F)(F)F)c2)cs1 [compound 65, 1-(4-(3-Amino-5-(trifluoromethyl)phenyl)thiazol-2-yl)ethan-1-one] | – |
| 4600 ± 2400 | – | – | CC(=O)c1cncc(-c2cc(N)cc(C(F)(F)F)c2)c1 [compound 70, 1-(5-(3-amino-5-(trifluoromethyl)phenyl)pyridin-3-yl)ethan-1-one] | – |
| 6600 ± 2100 | – | – | Cc1cc(-c2cc(N)cc(C(F)(F)F)c2)ccn1 [compound 74, 3-(2-methylpyridin-4-yl)-5-(trifluoromethyl)aniline] | – |
